Data set [1] has as its system Candida albicans. Description: Antifungal activity against Candida albicans CGMCC 2.2086 assessed as inhibition of fungal growth incubated for 48 hrs. The data set is classed as functional.
Data set [2] has as its system Candida tropicalis. Kind of data set: Antifungal activity against Candida tropicalis CGMCC 2.1975 assessed as inhibition of fungal growth incubated for 48 hrs. The data set is classed as functional.
For data set [3], the system named is Candida albicans. Kind of data set: Antifungal activity against Candida albicans SP3902 assessed as inhibition of fungal growth incubated for 48 hrs. Format: functional.
Data set [4] concerns Candida albicans. Description: Antifungal activity against Candida albicans SP3903 assessed as inhibition of fungal growth incubated for 48 hrs. Format: functional.
Data set [5] deals with Candida albicans. Description: Antifungal activity against Fluconazole-resistant Candida albicans 58288 assessed as inhibition of fungal growth incubated for 48 hrs. Format: functional.
Data set [6] has as its system Candida albicans. Description: Antifungal activity against Candida albicans SP3876 assessed as inhibition of fungal growth incubated for 48 hrs. The data set is classed as functional.
Data set [7] concerns Candida albicans. Kind of data set: Antifungal activity against Candida albicans SP3931 assessed as inhibition of fungal growth incubated for 48 hrs. Format: functional.
For data set [8], the system named is Candida albicans. Description: Antifungal activity against Candida albicans 14936 assessed as inhibition of fungal growth incubated for 48 hrs. The data set is classed as functional.
Data set [9] deals with Candida albicans. Kind of data set: Antifungal activity against Candida albicans 17546 assessed as inhibition of fungal growth incubated for 48 hrs. The data set is classed as functional.
Data set [10] concerns Candida albicans. Description: Antifungal activity against Fluconazole-resistant Candida albicans 56214 assessed as inhibition of fungal growth incubated for 48 hrs. The data set is classed as functional.
Data set [11] relates to Candida albicans. Kind of data set: Antifungal activity against Candida albicans 56452 assessed as inhibition of fungal growth incubated for 48 hrs. Format: functional.
For data set [12], the system named is Candida parapsilosis. Kind of data set: Antifungal activity against Candida parapsilosis CGMCC 2.3989 assessed as inhibition of fungal growth incubated for 48 hrs. Format: functional. The settings on record: Lodderomyces parapsilosis.
Data set [13] can be described thus: Hemolytic activity in human red blood cells assessed as hemolysis incubated for 1 hr. Format: toxicity, cell-based, Erythrocyte.
Data set [14] is described as follows: Hemolytic activity in human red blood cells assessed as hemolysis rate at 512 uM incubated for 1 hr relative to control. Format: toxicity, cell-based, Erythrocyte. Conditions: read-out: Activity.
Data set [15] in a line: Cytotoxicity against porcine IPEC-J2 cells assessed as reduction in cell viability at 128 uM incubated for 4 hrs by MTT assay. Format: toxicity, cell-based, Sus scrofa. The settings on record: pig, ipec-j2, 4 h.
Data set [16] deals with HEK293. Kind of data set: Cytotoxicity against HEK293 cells assessed as reduction in cell viability at 128 uM incubated for 4 hrs by MTT assay. The data set is classed as toxicity, cell-based. The settings on record: human, hek293, 4 h.
For data set [17], the system named is Candida albicans. Kind of data set: Antifungal activity against Candida albicans CGMCC 2.2086 assessed as inhibition of fungal growth incubated for 48 hrs in presence of NaCl. Format: functional.
The subject of data set [18] is Candida albicans. Description: Antifungal activity against Candida albicans CGMCC 2.2086 assessed as inhibition of fungal growth incubated for 48 hrs in presence of KCl. The data set is classed as functional.
The subject of data set [19] is Candida albicans. Description: Antifungal activity against Candida albicans CGMCC 2.2086 assessed as inhibition of fungal growth incubated for 48 hrs in presence of NH4Cl. The data set is classed as functional.
Data set [20] concerns Candida albicans. Description: Antifungal activity against Candida albicans CGMCC 2.2086 assessed as inhibition of fungal growth incubated for 48 hrs in presence of MgCl2. The data set is classed as functional.
Data set [21] deals with Candida albicans. Kind of data set: Antifungal activity against Candida albicans CGMCC 2.2086 assessed as inhibition of fungal growth incubated for 48 hrs in presence of ZnCl2. Format: functional.
Data set [22] deals with Candida albicans. Kind of data set: Antifungal activity against Candida albicans CGMCC 2.2086 assessed as inhibition of fungal growth incubated for 48 hrs in presence of FeCl3. Format: functional.
For data set [23], the system named is Candida albicans. Description: Antifungal activity against Candida albicans CGMCC 2.2086 assessed as inhibition of fungal growth incubated for 48 hrs in presence of CaCl2. Format: functional.
A short description of data set [24]: Stability of the compound in NaCl assessed as change in secondary structure by CD spectra analysis. The data set is classed as physicochemical.
Data set [25] in a line: Stability of the compound in KCl assessed as change in secondary structure by CD spectra analysis. Format: physicochemical.
Data set [26] in a line: Stability of the compound in NH4Cl assessed as change in secondary structure by CD spectra analysis. The data set is classed as physicochemical.
Data set [27] can be described thus: Stability of the compound in MgCl2 assessed as change in secondary structure by CD spectra analysis. The data set is classed as physicochemical.
Data set [28] is described as follows: Stability of the compound in ZnCl2 assessed as change in secondary structure by CD spectra analysis. Format: physicochemical.
The nature of data set [29]: Stability of the compound in FeCl3 assessed as change in secondary structure by CD spectra analysis. Format: physicochemical.
A short description of data set [30]: Stability of the compound in CaCl2 assessed as change in secondary structure by CD spectra analysis. The data set is classed as physicochemical.
A short description of data set [31]: Proteolytic stability of the compound assessed as trypsin (unknown origin)-mediated drug degradation measured after 8 hrs by 16.5% tricine-SDS-PAGE analysis. Format: ADME. The settings on record: human.
Data set [32] deals with Candida albicans. Kind of data set: Antifungal activity against Candida albicans CGMCC 2.2086 assessed as inhibition of fungal growth incubated for 2 hrs in presence of trypsin. The data set is classed as functional, organism-based.
Data set [33] has as its system Candida albicans. Description: Antifungal activity against Candida albicans CGMCC 2.2086 assessed as inhibition of fungal growth incubated for 2 hrs in presence of chymotrypsin. The data set is classed as functional, organism-based.
Data set [34] deals with Candida albicans. Description: Antifungal activity against Candida albicans CGMCC 2.2086 assessed as inhibition of fungal growth incubated for 2 hrs in presence of protease K. Format: functional, organism-based.
The nature of data set [35]: Proteolytic stability of the compound assessed as chymotrypsin (unknown origin)-mediated drug degradation measured after 8 hrs by 16.5% tricine-SDS-PAGE analysis. Format: ADME. Conditions: human.
Data set [36] is described as follows: Proteolytic stability of the compound assessed as protease K (unknown origin)-mediated drug degradation measured after 8 hrs by 16.5% tricine-SDS-PAGE analysis. The data set is classed as ADME. Conditions: human.

Structures are written as SMILES. ≈ marks a conversion by molar mass, not a printed value. Calls of active or inactive are those of the source. The calls are words filed in the database; no cut-off is given here.

Take `CC[C@H](C)[C@H](N)C(=O)N[C@H](C(=O)N[C@H](CCCNC(=N)N)C(=O)N[C@@H](CCCNC(=N)N)C(=O)N[C@@H](Cc1c[nH]cn1)C(=O)N[C@H](C(=O)N[C@H](C(=O)N[C@H](C(=O)N[C@H](C(=O)N[C@H](CCCNC(=N)N)C(=O)N[C@@H](CCCNC(=N)N)C(=O)N[C@@H](Cc1c[nH]cn1)C(=O)N[C@H](C(=O)N[C@H](C(=O)N[C@H](C(=O)N[C@H](C(=O)N[C@H](CCCNC(=N)N)C(=O)N[C@@H](CCCNC(=N)N)C(=O)N[C@@H](Cc1c[nH]cn1)C(=O)N[C@H](C(=O)N[C@H](C(=O)N[C@H](C(=O)N[C@H](C(=O)N[C@H](CCCNC(=N)N)C(=O)N[C@@H](CCCNC(=N)N)C(=O)N[C@@H](Cc1c[nH]cn1)C(=O)N[C@H](C(=O)N[C@H](C(N)=O)[C@@H](C)CC)[C@@H](C)CC)[C@@H](C)CC)[C@@H](C)CC)[C@@H](C)CC)[C@@H](C)CC)[C@@H](C)CC)[C@@H](C)CC)[C@@H](C)CC)[C@@H](C)CC)[C@@H](C)CC)[C@@H](C)CC)[C@@H](C)CC)[C@@H](C)CC)[C@@H](C)CC`: the MIC95 came to 4 µM (≈ 14.5 µg/mL) in data set [1]; 4 µM (≈ 14.5 µg/mL) in [2]; 4 µM (≈ 14.5 µg/mL) in data set [3]; 4 µM (≈ 14.5 µg/mL) in data set [4]; 8 µM (≈ 29 µg/mL) in data set [5]; 4 µM (≈ 14.5 µg/mL) in [6]. The MIC95 came out at 8 µM (≈ 29 µg/mL) in [7]; 4 µM (≈ 14.5 µg/mL) in [8]; 8 µM (≈ 29 µg/mL) in data set [9]; 4 µM (≈ 14.5 µg/mL) in data set [10]; 8 µM (≈ 29 µg/mL) in [11]; 4 µM (≈ 14.5 µg/mL) in [12]. In addition, the MIC95 came out at 32 µM in [17]; 8 µM in [18]; 8 µM in [19]; 8 µM in [20]; 16 µM in data set [21]; 16 µM in [22]. In addition, the MIC95 in data set [23] amounted to 16 µM. For the same compound, the HC50 at 1 h in data set [13] is greater than 512 µM. For the same compound, in [14], the hemolysis at 1 h, 512 µM came to 38.9%. The Activity result in data set [15] and in data set [16] was “Toxic” throughout. The Stability result in [24] is “Unstable”; in data set [25], “Stable”; in data set [26], “Stable”; in data set [27], “Stable”; in data set [28], “Stable”; in data set [29], “Stable”. For the same compound, the Stability result in data set [30] is on record as “Stable”.
On to `CC[C@H](C)[C@H](NC(=O)CN)C(=O)NCC(=O)N[C@@H](C)C(=O)N[C@H](C(=O)N[C@@H](CC(C)C)C(=O)N[C@@H](CCCCN)C(=O)N[C@H](C(=O)N[C@@H](CC(C)C)C(=O)N[C@H](C(=O)N[C@H](C(=O)NCC(=O)N[C@@H](CC(C)C)C(=O)N1CCC[C@H]1C(=O)N[C@@H](C)C(=O)N[C@@H](CC(C)C)C(=O)N[C@H](C(=O)N[C@@H](CO)C(=O)N[C@@H](Cc1c[nH]c2ccccc12)C(=O)N[C@H](C(=O)N[C@@H](CCCCN)C(=O)N[C@@H](CCCNC(=N)N)C(=O)N[C@@H](CCCCN)C(=O)N[C@@H](CCCNC(=N)N)C(=O)N[C@@H](CCC(N)=O)C(=O)N[C@@H](CCC(N)=O)C(N)=O)[C@@H](C)CC)[C@@H](C)CC)[C@@H](C)O)[C@@H](C)O)C(C)C)C(C)C` [MELITTIN], for which the MIC95 in [1] was determined as 4 µM (≈ 11.4 µg/mL); in data set [2], 2 µM (≈ 5.69 µg/mL); in data set [3], 4 µM (≈ 11.4 µg/mL); in data set [4], 4 µM (≈ 11.4 µg/mL); in [5], 4 µM (≈ 11.4 µg/mL); in data set [6], 4 µM (≈ 11.4 µg/mL). In addition, the MIC95 in data set [7] was 4 µM (≈ 11.4 µg/mL); in data set [8] it was 4 µM (≈ 11.4 µg/mL); in [9], 4 µM (≈ 11.4 µg/mL); in data set [10], 2 µM (≈ 5.69 µg/mL); in data set [11], 4 µM (≈ 11.4 µg/mL); in data set [12] it was 2 µM (≈ 5.69 µg/mL). For the same compound, the Stability result in data set [31], in [35] and in data set [36] was “Unstable” in each case. Moreover, the outcome in [32], in data set [33] and in [34] was inactive.
